Source: US8324166B2, “Neuroprotection using NAP-like and SAL-like peptide mimetics” (Ramot at Tel-Aviv University, Ltd., priority 2007, dated 2012)
Where “and” joins values, the source holds several entries; their conditions need not be identical. Identical values can stand only once. Entries after “also recorded” stand apart in the source; their conditions may differ.

Tests used:
[1] = system: rTg(tauP301L)4510 mouse (Tau-Tg); experiment: Brain-Body weight ratio in Tau transgenic mice; assay type: in vivo
Description: (§1) The experiment included three groups: Tau-Tg female mice, 10-month-old, treated by intranasal administration of NAT 2 μg/5 μl/mouse/day (n=5) or vehicle (SW/mouse/day) (n=6), and as control, non-Tg female littermates treated by vehicle (SW/mouse/day) (n=7).
Treatment started at 9 months of age and continued daily for a period of 5 weeks. At each test NAT was applied 1 h before the test begun.
All mice were weighed at the beginning and end of the experiment and whole brain weight was measured before the brain dissection.
All mice were weighed before first drug application and again before the dissection (while still alive). […] Whole brain was weighed before the brain sections were separated and no significant statistical differences between the groups were found. However, Brain-Body weight ratio may be used to measure brain mass decrease possibly indicating neuronal degradation (Bassan et al., (2009) J Matern Fetal Neonatal Med, 1-6).

ADNP = experiment: Nuclear ADNP level in cerebral cortex by immunoblotting; assay type: in vivo, mouse; details: NAT vs vehicle treated TAU-Tg, p=0.0028, listed as NAT
Description: as §1
Mouse brain tissue was rapidly dissected and quickly separated into four different brain sections: cortex, hippocampus, cerebellum and rest of the brain. Brains were kept frozen at −80° C. for further biochemical analysis. Total levels of nuclear ADNP were analyzed by immunoblotting. Cerebral cortex samples (˜50 mg each) were homogenized and cytoplasmic and nucleus proteins were separated using lysis buffer (20 mM TRIS HCl pH […], 0.1 mM EDTA, 1.5 mM MgCl2, 0.2% NP-40) and extraction buffer (10 mM TRIS HCl pH 7.7, 0.1 mM EDTA, 1.5 mM MgCl2, 20% Glycerol, 1.61 gr NaCl). Protein amount was estimated and corrected by using the Bradford assay and then separated by electrophoresis on 12% polyacrylamide gels containing SDS (Shiryaev et al., (2009) Neurobiol Dis, 34, 381-388). Western blot analyses were performed by applying brain protein samples onto two gels. Each gel had sample representation from each one of the three groups. […] Protein bands on hyperfilm were quantified using photochromatography analysis. The ADNP amount in each band was calculated as its percentage from the total amount of all bands. […]

[2] = system: neurons in mixed neuroglial cultures intoxicated with beta-amyloid 1-42; experiment: MAP2 assay: neuronal survival in mixed neuroglial cultures following beta-amyloid intoxication; assay type: cell-based, rat
Description: Newborn rats were used to prepare cerebral cortical astrocytes cell cultures as described above. After suspending the cells in D1, they were centrifuged at 100 g for 5 minutes and the supernatant discarded. The cell pellet was resuspended in solution D2 containing 5% heat inactivated horse serum (Biological Industries, Beit Haemek, Israel), 0.1% gentamycin, 0.1% penicillin-streptomycin-nystatin, 1% N3 (defined medium components essential for neuronal development in culture, (Romijn HJ, Brain Res., 254:583-9 (1981)]), 15 μg/ml 5′-fluoro-2-deoxyuridine (FUDR, Sigma, Rehovot, Israel), and 3 μg/ml uridine (Sigma, Rehovot, Israel) in DMEM. Cells were counted in a hemocytometer, diluted in D2 and 17,000 cells/well/96 well plate were seeded on 8-day-old astrocytes prepared as described above. The medium was changed the next day to D2 without FUDR and uridine. Cells were allowed to grow for one week at 37° C. 10% CO2 before experiments were performed.
Neuronal survival in neuroglial cultures following beta-amyloid intoxication was assayed using the neuron specific antibody, MAP2. […] The cells were incubated for 5 days in 10% CO2 at 37°C.
5 days after the addition of beta-amyloid and the peptide, the cells were fixed by removing the media from each well and the addition of cold methanol. The cells were left in the refrigerator overnight. The cells were immunostained with anti-MAP2 as previously described (Brooke S M et al., Neurosci. Lett., 267:21-4(1999)): the methanol was removed and the cells were washed 4 times with phosphate buffered saline (PBS). Blocking for non-specific antibody binding was performed by incubating the cells in 5% non-fat milk in PBS overnight at 4° C. The blocking solution was then removed and anti-MAP2(1:1000; Sigma, Rehovot, Israel) was added to each well. The cells were incubated for 30 minutes at room temperature, followed by 4 washes with PBS. Biotinylated anti-mouse IgG (1:200, Vector Laboratories, Burlingame, Calif., USA) was then added to each well, and the cells were incubated for 30 minutes at room temperature followed by 4 washes with PBS. The cells were incubated at room temperature for 30 minutes with the ABC reagent (Vector Laboratories, Burlingame, Calif., USA) prepared according to the manufacturer's protocol and then washed 4 times with PBS. ABTS reagent, prepared according to the manufacturer's protocol (Vector Laboratories, Burlingame, Calif., USA) was then added to each well and the cells were incubated for 20 minutes in the dark at room temperature. The plates were read in an ELISA plate reader at 405nm. As blanks, wells containing untreated cells and no primary antibody were used.

## NATLSIHQ (synthetic NAP-like peptide)
[1]; TAU-Tg mice, intranasal NAT, listed as NAT
  protection from neurodegeneration (Brain-Body weight ratio): protected the brain from neurodegeneration; also recorded: protective effect
[1]; TAU-Tg+NAT, intranasal daily 5 weeks, mean and S.E., p=0.030 vs vehicle treated TAU-Tg
  Brain-Body weight ratio: 0.0148+0.0009
ADNP
  amount of nuclear ADNP protein: difference between the NAT and vehicle treated TAU-Tg groups; also recorded: statistically significant increase
[2]; MAP2 assay, 5 days, tested 10^−19M to 10^−5M, significance vs negative control in cell
  effective concentrations on neuronal survival: Neurons (25 μM beta-amyloid): 10^−19 M and 10^−15 M and 10^−17 M and 10^−13 M
[2]; neuroglial cells, beta-amyloid
  activity in neuroprotection assay: active
[2]; survival of neuroglial cells
  efficacy compared between peptides: greater than that of STPTAIPQ
